ChEMBL document CHEMBL1212831, “Discovery of N-[(2S)-5-(6-fluoro-3-pyridinyl)-2,3-dihydro-1H-inden-2-yl]-2-propanesulfonamide, a novel clinical AMPA receptor positive modulator” (J Med Chem, 2010)
Calls of active or inactive are those of the source. The calls are words filed in the database; no cut-off is given here.

How the values were obtained:
Glutamate receptor 2 = Glutamate receptor 2 (Homo sapiens, UniProt P42262)
Description: Activation of human GluR2 flip isoform expressed in HEK293 cells assessed as increase of glutamate-induced intracellular calcium level by FLIPR assay

[1] = Plasma protein binding in rat at 1 ug/ml after 6 hrs by equilibrium dialysis method; type: ADME, cell-free; conditions: read-out: PPB (converted)
MDR1 (human) = test: in vitro; conditions: dog, MDCK-MDR1
Description: Efflux ratio of permeability from basolateral to apical over apical to basolateral side of MDCK2 cells over expressing human MDR1

in vivo = conditions: rat, brain/blood
Description: Ratio of brain AUC (0 to t) to blood AUC (0 to t) in rat

[2] = AUC (0 to t) in rat; type: ADME, organism-based; conditions: plasma
Liver microsomes [3] = test system: Liver microsomes
Cytochrome P450 3A4 = Cytochrome P450 3A4 (Homo sapiens, UniProt P08684)
Sequence of Cytochrome P450 3A4 (P08684 whole entry): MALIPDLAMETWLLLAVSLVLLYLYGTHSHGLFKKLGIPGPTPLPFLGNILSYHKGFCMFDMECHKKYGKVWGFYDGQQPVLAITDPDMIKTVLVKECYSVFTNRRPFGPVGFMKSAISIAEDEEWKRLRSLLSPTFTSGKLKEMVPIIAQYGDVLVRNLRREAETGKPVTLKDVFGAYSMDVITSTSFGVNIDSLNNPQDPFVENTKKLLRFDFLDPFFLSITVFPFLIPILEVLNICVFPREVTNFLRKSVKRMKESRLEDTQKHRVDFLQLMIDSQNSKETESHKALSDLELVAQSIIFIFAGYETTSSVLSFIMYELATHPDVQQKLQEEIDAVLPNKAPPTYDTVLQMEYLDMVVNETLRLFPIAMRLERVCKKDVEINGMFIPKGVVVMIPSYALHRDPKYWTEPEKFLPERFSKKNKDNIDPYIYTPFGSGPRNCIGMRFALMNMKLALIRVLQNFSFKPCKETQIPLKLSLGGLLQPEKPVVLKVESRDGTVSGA
Description: Inhibition of human CYP3A4 after 10 mins

Cytochrome P450 1A2 = molecular target: T1, Cytochrome P450 1A2 (Homo sapiens, UniProt P05177)
T1 sequence (P05177 whole entry): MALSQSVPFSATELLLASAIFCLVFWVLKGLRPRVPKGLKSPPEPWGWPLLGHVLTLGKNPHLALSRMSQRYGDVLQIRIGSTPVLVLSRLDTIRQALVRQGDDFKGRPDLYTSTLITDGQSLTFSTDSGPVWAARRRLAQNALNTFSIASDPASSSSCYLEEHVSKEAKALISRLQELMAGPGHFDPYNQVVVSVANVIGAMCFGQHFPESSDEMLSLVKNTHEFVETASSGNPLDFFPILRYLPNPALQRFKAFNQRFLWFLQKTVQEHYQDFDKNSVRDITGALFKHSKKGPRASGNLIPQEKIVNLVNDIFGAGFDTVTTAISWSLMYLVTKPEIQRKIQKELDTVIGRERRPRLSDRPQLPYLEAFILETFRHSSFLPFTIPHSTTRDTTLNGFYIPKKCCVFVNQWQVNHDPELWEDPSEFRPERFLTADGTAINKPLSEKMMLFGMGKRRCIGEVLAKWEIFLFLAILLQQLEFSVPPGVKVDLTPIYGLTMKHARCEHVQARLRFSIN
Description: Inhibition of human CYP1A2 after 10 mins

Cytochrome P450 2D6 = Cytochrome P450 2D6 (Homo sapiens, UniProt P10635)
Sequence of Cytochrome P450 2D6 (P10635 whole entry): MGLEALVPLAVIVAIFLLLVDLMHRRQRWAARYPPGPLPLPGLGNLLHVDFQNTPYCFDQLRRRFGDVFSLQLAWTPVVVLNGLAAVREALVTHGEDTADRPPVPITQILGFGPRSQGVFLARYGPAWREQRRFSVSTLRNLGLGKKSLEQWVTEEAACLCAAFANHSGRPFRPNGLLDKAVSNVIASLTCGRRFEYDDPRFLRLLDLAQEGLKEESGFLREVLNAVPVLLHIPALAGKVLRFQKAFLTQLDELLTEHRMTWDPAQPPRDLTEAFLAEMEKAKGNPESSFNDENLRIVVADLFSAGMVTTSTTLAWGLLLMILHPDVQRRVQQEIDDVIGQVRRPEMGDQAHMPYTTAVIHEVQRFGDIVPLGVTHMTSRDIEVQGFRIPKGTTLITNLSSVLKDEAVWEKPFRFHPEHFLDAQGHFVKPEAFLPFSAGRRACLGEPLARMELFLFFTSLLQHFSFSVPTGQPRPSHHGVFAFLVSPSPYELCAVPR
Description: Inhibition of human CYP2D6 after 10 mins

Liver microsomes [4] = test system: Liver microsomes; remark: listed apart in the source
Cytochrome P450 2C9 = Cytochrome P450 2C9 (Homo sapiens, UniProt P11712)
Sequence of Cytochrome P450 2C9 (P11712 whole entry): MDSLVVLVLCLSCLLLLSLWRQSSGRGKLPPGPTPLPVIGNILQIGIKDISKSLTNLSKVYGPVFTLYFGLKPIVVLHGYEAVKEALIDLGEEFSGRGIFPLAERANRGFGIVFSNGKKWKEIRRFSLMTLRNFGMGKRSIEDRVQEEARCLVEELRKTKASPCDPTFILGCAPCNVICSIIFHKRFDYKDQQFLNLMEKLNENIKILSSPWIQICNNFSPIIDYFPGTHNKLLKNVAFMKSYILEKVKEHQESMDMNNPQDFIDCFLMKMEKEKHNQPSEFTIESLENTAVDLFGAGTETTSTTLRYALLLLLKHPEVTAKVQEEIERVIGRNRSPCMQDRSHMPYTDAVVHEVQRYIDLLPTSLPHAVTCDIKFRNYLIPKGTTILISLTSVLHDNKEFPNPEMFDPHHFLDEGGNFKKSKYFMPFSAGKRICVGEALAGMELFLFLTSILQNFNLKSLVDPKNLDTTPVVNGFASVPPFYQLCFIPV
Description: Inhibition of human CYP2C9 after 10 mins

Cytochrome P450 2C19 = Cytochrome P450 2C19 (Homo sapiens, UniProt P33261)
Sequence of Cytochrome P450 2C19 (P33261 whole entry): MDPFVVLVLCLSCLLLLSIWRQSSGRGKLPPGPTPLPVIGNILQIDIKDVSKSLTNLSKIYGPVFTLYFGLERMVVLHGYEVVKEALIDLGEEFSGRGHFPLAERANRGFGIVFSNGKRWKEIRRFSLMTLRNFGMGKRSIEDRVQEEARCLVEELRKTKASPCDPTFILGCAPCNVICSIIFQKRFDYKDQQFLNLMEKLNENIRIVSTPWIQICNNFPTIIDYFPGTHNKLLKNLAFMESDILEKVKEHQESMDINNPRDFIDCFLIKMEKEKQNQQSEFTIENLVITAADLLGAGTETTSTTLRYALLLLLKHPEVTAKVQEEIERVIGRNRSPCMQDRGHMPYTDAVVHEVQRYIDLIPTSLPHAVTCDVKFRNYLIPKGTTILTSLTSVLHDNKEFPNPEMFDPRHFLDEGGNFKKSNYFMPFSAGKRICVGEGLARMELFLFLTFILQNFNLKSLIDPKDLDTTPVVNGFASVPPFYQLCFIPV
Description: Inhibition of human CYP2C19 after 10 mins

Rattus norvegicus [5] = test: Antiamnesic activity in po dosed assessed as inhibition of Scopolamine-induced amnesic deficit administered 3 hrs before Scopolamine challenge by step-down passive avoidance test; type: functional, organism-based; conditions: Wistar
[6] = Cmax in Sprague-Dawley rat at 3 mg/kg, po; type: ADME, organism-based; set-up: dose 3 mg/kg, route oral; conditions: in vivo
Blood = test: Drug level in po dosed Lister Hooded rat blood; type: ADME, organism-based; conditions: in vivo
[7] = Oral bioavailability in Sprague-Dawley rat at 3 mg/kg; type: ADME, organism-based; conditions: in vivo
[8] = Half life in Sprague-Dawley rat at 1 mg/kg, iv and 3 mg/kg, po; type: ADME, organism-based; conditions: in vivo
[9] = Blood clearance in Sprague-Dawley rat at 1 mg/kg, iv and 3 mg/kg, po; type: ADME, organism-based
Rattus norvegicus [10] = test: Antiamnesic activity in po dosed assessed as inhibition of amnesic deficit by step-down passive avoidance test; type: functional, organism-based; conditions: Wistar
[11] = Volume of distribution at steady state in Sprague-Dawley rat at 1 mg/kg, iv and 3 mg/kg, po; type: ADME, organism-based; conditions: in vivo, read-out: Vdss
[12] = Tmax in Sprague-Dawley rat at 3 mg/kg, po; type: ADME, organism-based; set-up: dose 3 mg/kg, route oral; conditions: in vivo
Brain [13] = test: Drug level in po dosed Lister Hooded rat brain assessed per gram of tissue; type: ADME, organism-based; conditions: in vivo
Brain [14] = test: Brain tissue binding in rat at 1 ug/ml after 6 hrs by equilibrium dialysis method; type: ADME, tissue-based
Rattus norvegicus [15] = test: Cognitive enhancing effect in po dosed Lister Hooded rat assessed as reversal of 24 hrs delay-induced retention deficit behavior by novel object recognition assay; type: functional; conditions: read-out: MED

Sequence of Glutamate receptor 2 (P42262 whole entry): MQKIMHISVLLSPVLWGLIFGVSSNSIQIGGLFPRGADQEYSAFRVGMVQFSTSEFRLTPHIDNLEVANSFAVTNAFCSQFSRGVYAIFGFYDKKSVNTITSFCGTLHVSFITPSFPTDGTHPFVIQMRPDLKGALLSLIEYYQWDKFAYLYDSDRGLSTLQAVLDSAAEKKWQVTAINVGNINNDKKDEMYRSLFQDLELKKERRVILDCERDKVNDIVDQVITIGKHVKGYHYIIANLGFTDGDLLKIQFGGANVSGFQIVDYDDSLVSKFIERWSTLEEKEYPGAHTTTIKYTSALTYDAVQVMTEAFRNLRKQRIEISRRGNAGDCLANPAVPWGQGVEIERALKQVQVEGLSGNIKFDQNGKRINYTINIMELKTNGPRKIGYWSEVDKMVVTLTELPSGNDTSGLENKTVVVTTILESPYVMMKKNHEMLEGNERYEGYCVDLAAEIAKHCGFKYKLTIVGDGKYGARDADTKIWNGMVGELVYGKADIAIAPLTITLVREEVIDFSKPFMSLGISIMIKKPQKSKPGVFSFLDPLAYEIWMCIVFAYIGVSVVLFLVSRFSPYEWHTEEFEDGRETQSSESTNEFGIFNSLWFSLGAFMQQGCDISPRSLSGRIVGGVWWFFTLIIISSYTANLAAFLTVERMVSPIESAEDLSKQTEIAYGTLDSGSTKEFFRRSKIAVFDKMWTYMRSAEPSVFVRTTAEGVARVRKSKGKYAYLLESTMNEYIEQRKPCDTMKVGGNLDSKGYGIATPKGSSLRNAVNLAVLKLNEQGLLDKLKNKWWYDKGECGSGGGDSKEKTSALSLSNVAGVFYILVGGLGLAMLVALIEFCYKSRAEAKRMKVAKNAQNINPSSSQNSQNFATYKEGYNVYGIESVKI
Description for physchem: Dissociation constant, pKa of the compound

SMILES | EC50 (Glutamate receptor 2) | IC50 (Liver microsomes [3]) | IC50 (Cytochrome P450 3A4) | IC50 (Cytochrome P450 1A2) | IC50 (Cytochrome P450 2D6) | IC50 (Liver microsomes [4]) | IC50 (Cytochrome P450 2C9) | IC50 (Cytochrome P450 2C19) | pKa (physchem) | other results
CC(C)S(=O)(=O)NC1Cc2ccc(-c3cccc(S(=O)(=O)N(C)C)c3)cc2C1 (stereo unspecified) | 7.94 µM |  |  |  |  |  |  |  |  | 
CC(C)S(=O)(=O)NC1Cc2ccc(-c3cccc(N(C)S(C)(=O)=O)c3)cc2C1 (stereo unspecified) | 1.26 µM |  |  |  |  |  |  |  |  | fraction unbound at 6 h, 1 ug/ml [1]: 0.036; efflux ratio (MDR1 (human)): 3.2; Kp (in vivo): 0.4; AUC(0-t) [2]: 161 ng·h/mL
CCS(=O)(=O)Nc1cccc(-c2ccc3c(c2)CC(NS(=O)(=O)C(C)C)C3)c1 (stereo unspecified) | 2.51 µM |  |  |  |  |  |  |  |  | 
CC(=O)Cc1cccc(-c2ccc3c(c2)CC(NS(=O)(=O)C(C)C)C3)c1 (stereo unspecified) | 6.31 µM |  |  |  |  |  |  |  |  | 
CC(=O)c1cccc(-c2ccc3c(c2)CC(NS(=O)(=O)C(C)C)C3)c1 (stereo unspecified) | > 50.1 µM |  |  |  |  |  |  |  |  | 
CC(C)S(=O)(=O)NC1Cc2ccc(-c3cccc(NS(C)(=O)=O)c3)cc2C1 (stereo unspecified) | 0.794 µM |  |  |  |  |  |  |  |  | fraction unbound at 6 h, 1 ug/ml [1]: 0.041; efflux ratio (MDR1 (human)): 5.8; Kp (in vivo): 0.1; AUC(0-t) [2]: 1130 ng·h/mL
CC(C)S(=O)(=O)NC1Cc2ccc(-c3cccc(C#N)c3)cc2C1 (stereo unspecified) | > 50.1 µM |  |  |  |  |  |  |  |  | 
CC(C)C(=O)Nc1cccc(-c2ccc3c(c2)CC(NS(=O)(=O)C(C)C)C3)c1 (stereo unspecified) | > 50.1 µM |  |  |  |  |  |  |  |  | 
CC(C)S(=O)(=O)NC1Cc2ccc(-c3cccc(CN4CCCS4(=O)=O)c3)cc2C1 (stereo unspecified) | 0.398 µM |  |  |  |  |  |  |  |  | fraction unbound at 6 h, 1 ug/ml [1]: 0.033
CC(C)S(=O)(=O)NC1Cc2ccc(-c3cccc(CN4CCCC4=O)c3)cc2C1 (stereo unspecified) | 12.6 µM |  |  |  |  |  |  |  |  | fraction unbound at 6 h, 1 ug/ml [1]: 0.024; Kp (in vivo): 0.4; AUC(0-t) [2]: 36 ng·h/mL
CC(C)S(=O)(=O)NC[C@H](C)c1ccc(NC(=O)c2cc(F)cc(F)c2)cc1 | 0.398 µM |  |  |  |  |  |  |  |  | 
CC(=O)Nc1cccc(-c2ccc3c(c2)CC(NS(=O)(=O)C(C)C)C3)c1 (stereo unspecified) | 20 µM |  |  |  |  |  |  |  |  | fraction unbound at 6 h, 1 ug/ml [1]: 0.051

The next lines start with results.

EC50 (Glutamate receptor 2) | IC50 (Liver microsomes [3]) | IC50 (Cytochrome P450 3A4) | IC50 (Cytochrome P450 1A2) | IC50 (Cytochrome P450 2D6) | IC50 (Liver microsomes [4]) | IC50 (Cytochrome P450 2C9) | IC50 (Cytochrome P450 2C19) | pKa (physchem) | SMILES | other results
3.16 µM | 2 µM | > 10 µM | > 10 µM | > 10 µM | 0.7 µM | > 10 µM | > 10 µM | 5.7 | Cc1ccc(-c2ccc3c(c2)CC(NS(=O)(=O)C(C)C)C3)cn1 (stereo unspecified) | Kp (in vivo): 1.4
15.8 µM | 2.1 µM | > 10 µM | 0.6 µM | > 10 µM | < 0.5 µM | > 10 µM | > 10 µM | 5.1 | CC(C)S(=O)(=O)NC1Cc2ccc(-c3cccnc3)cc2C1 (stereo unspecified) | 
20 µM | 14 µM | > 10 µM | > 10 µM | > 10 µM | 1.3 µM | > 10 µM | > 10 µM | 4.9 | Cc1cccnc1-c1ccc2c(c1)CC(NS(=O)(=O)C(C)C)C2 (stereo unspecified) | 
15.8 µM | 2.5 µM | > 10 µM | > 10 µM | > 10 µM | 2.1 µM | > 10 µM | 9 µM |  | CC(C)S(=O)(=O)NC1Cc2ccc(-c3cccnc3F)cc2C1 (stereo unspecified) | Kp (in vivo): 1.5
2 µM | 1.6 µM | > 10 µM | > 10 µM | > 10 µM | < 0.5 µM | > 10 µM | > 10 µM | 2.7 | CC(C)S(=O)(=O)N[C@H]1Cc2ccc(-c3ccc(F)cn3)cc2C1 | Activity (Rattus norvegicus [5]): Dose-dependent effect; fraction unbound at 6 h, 1 ug/ml [1]: 0.097; efflux ratio (MDR1 (human)): 1.1; Kp (in vivo): 1.4; Cmax [6]: 436 ng/mL; Drug uptake (Blood): 37 ng/mL; bioavailability [7]: 72%; half-life [8]: 60 min; clearance [9]: 24 mL/min/kg; inhibition (Rattus norvegicus [10]): inactive; Vd [11]: 2.2 L/kg; Tmax [12]: 30 min; Drug uptake (Brain [13]): 70 ng/g; Activity (Brain [14]): 97.9%; minimal effective dose (Rattus norvegicus [15]): 0.3 mg/kg
2 µM | 3.5 µM | > 10 µM | > 10 µM | > 10 µM | < 0.6 µM | > 10 µM | > 10 µM | 5.8 | Cc1ccc(-c2ccc3c(c2)C[C@@H](NS(=O)(=O)C(C)C)C3)cn1 | fraction unbound at 6 h, 1 ug/ml [1]: 0.078; efflux ratio (MDR1 (human)): 0.9; Kp (in vivo): 1.3; Cmax [6]: 116 ng/mL; bioavailability [7]: 25%; half-life [8]: 36 min; clearance [9]: 55 mL/min/kg; Vd [11]: 2.4 L/kg; Tmax [12]: 60 min; Activity (Brain [14]): 96.7%
 |  |  |  | > 10 µM |  |  |  |  | CC(C)S(=O)(=O)N[C@@H]1Cc2ccc(-c3ccc(F)nc3)cc2C1 | 
6.31 µM | 0.6 µM | > 10 µM | > 10 µM | > 10 µM | 0.5 µM | > 10 µM | > 10 µM | 2.7 | CC(C)S(=O)(=O)NC1Cc2ccc(-c3ccc(F)cn3)cc2C1 (stereo unspecified) | 
3.16 µM | 7.3 µM | > 10 µM | > 10 µM | > 10 µM | 0.8 µM | > 10 µM | > 10 µM | 4.9 | Cc1ccc(-c2ccc3c(c2)CC(NS(=O)(=O)C(C)C)C3)nc1 (stereo unspecified) | 
7.94 µM | < 0.8 µM | > 10 µM | > 10 µM | > 10 µM | < 0.5 µM | > 10 µM | > 10 µM |  | CC(C)S(=O)(=O)NC1Cc2ccc(-c3ccc(Cl)cn3)cc2C1 (stereo unspecified) | 
 | 1.1 µM | > 10 µM | > 10 µM | > 10 µM | 1.7 µM | > 10 µM | > 10 µM |  | CC(C)S(=O)(=O)NC1Cc2ccc(-c3ccc(F)nc3)cc2C1 (stereo unspecified) | 
63.1 µM | < 0.5 µM | > 10 µM | > 10 µM | > 10 µM | 0.7 µM | > 10 µM | > 10 µM |  | CC(C)S(=O)(=O)NC1Cc2ccc(-c3cncc(C#N)c3)cc2C1 (stereo unspecified) | 
20 µM | 4.5 µM | > 9 µM | > 10 µM | > 10 µM | 1.4 µM | > 10 µM | > 10 µM | 5.8 | Cc1ccncc1-c1ccc2c(c1)CC(NS(=O)(=O)C(C)C)C2 (stereo unspecified) | 
